# According to article PMC6940912, “Novel Drug-Like Somatostatin Receptor 4 Agonists are Potential Analgesics for Neuropathic Pain” (International Journal of Molecular Sciences, 2019):
# Assays:
# Male NMRI mice [1] = system: Male NMRI mice; set-up: method as in PMID 16697366, PMID 12122501; conditions: 10–100 µg/kg i.p. ref 15, 27; cited from earlier work
# sst4 receptor = target: T1, sst4 receptor (Homo sapiens, UniProt P31391); assay: sst4 receptor-linked G-protein activation, [35S]GTPγS binding assay on membranes of sst4-expressing CHO cells; format: biochemical; conditions: for EC50: 1 nM to 10 µM, n = 3; for Emax: [35S]GTPγS binding, mean ± SEM, n = 3, read-out: Maximal activation over the basal activity of the receptor (efficacy)
# T1 construct: expressed in transfected cells; host or cells: CHO cells
# Procedure: Membrane fractions were prepared from CHO cells, which express the sst4 receptor, in Tris–ethylene glycol-bis(2-aminoethyl)tetraacetic acid (Tris–EGTA) buffer (50 mM Tris–HCl (Sigma, St. Louis, MO, USA), 1 mM EGTA (Sigma, St. Louis, MO, USA), 3 mM MgCl2 (Sigma, St. Louis, MO, USA), 100 mM NaCl (Sigma, St. Louis, MO, USA), pH 7.4, 10 μg of protein/sample). The fractions were incubated in the buffer containing 0.05 nM guanosine triphosphate (GTP) (BioChemica International Inc., Melbourne, Florida, USA), labeled on the gamma phosphate group with ^35S ([^35S]GTPγS) (Isotop Institute, Budapest, Hungary) and increasing concentrations (1 nM to 10 µM) of C1, C2, C3 and C4 compounds for 60 min at 30 °C, in the presence of 30 μM guanosine diphosphate (GDP) (Sigma, St. Louis, MO, USA). We determined the nonspecific binding in the presence of 10 μM unlabeled GTPγS and total binding in the absence of test compounds. Samples were filtrated through Whatman GF/B glass fiber filters using 48-well Slot Blot Manifold from Cleaver Scientific (Cleaver Scientific Ltd., Rugby, Warwickshire, United Kingdom). Filters were washed with ice-cold 50 mM Tris–HCl buffer (pH 7.4) and radioactivity was measured in a β-counter (PerkinElmer Inc., Waltham, MA, USA). The test-compound-induced G-protein activation was given as percentage over the specific [^35S]GTPγS binding detected in the absence of agonists.
# (§1) In the sst4 receptor activation assay, all the compounds were dissolved in dimethyl sulfoxide (DMSO) (Szkarabeusz Ltd., Pécs, Hungary). The concentration of the stock solutions was 10 mM and was diluted with distilled water to reach the final concentrations. For the in vivo experiments, 1 mg of the compounds was rubbed dry in a braying mortar, suspended thoroughly in 1 mL 1.25% methylcellulose (MC) (Pharmacy of University of Pécs, Pécs, Hungary) solution and then dissolved in sterile bidistilled water to get a 1000 µg/mL stock solution freshly every experimental day. Most microsuspensions looked opalescent; they were shaken properly, sonicated, and further diluted with 1.25% MC to obtain the 25 µg/mL solution for oral administrations (0.2 mL/10 g body weight for the 500 µg/kg dose). The solutions were shaken and sonicated again directly before use. The vehicle was always 1.25% MC dissolved in sterile bidistilled water.
# Male NMRI mice [2] = assay: RTX-induced acute neurogenic inflammatory thermal allodynia and mechanical hyperalgesia; format: in vivo, mouse; conditions: oral pretreatment 1 h before intraplantar RTX, printed dose 500 µg/kg
# Procedure: The investigated compounds (500 µg/kg p.o.) or the vehicle were administered orally 1 h before the induction of the acute neurogenic inflammation by intraplantar RTX (Sigma, St. Louis, MO, USA) injection (20 µL, 0.1 µg/mL) into the right hindpaw. RTX evokes an acute neurogenic inflammatory reaction with the development of a rapid thermal allodynia, mainly due to peripheral sensitization mechanisms, and a later developing mechanical hyperalgesia due also to central sensitization. The nociceptive heat threshold was determined before (control) and 10, 20 and 30 min after RTX administration with an increasing-temperature hot plate (IITC Life Science, Woodland Hills, CA, USA). […] The mechanonociceptive threshold was measured with an electronic von Frey device (dynamic plantar aesthesiometer (DPA), Ugo Basile, Comerio, Italy) prior to RTX injection and 30, 60 and 90 min afterwards. The measurement at 30 min was performed immediately after the last heat threshold measurement. The experiment consisted of two separate series on consecutive days and the number of animals in the control group was six per day. Therefore, the control group contained 12 mice, and six and five mice were used in the C1- and C2-treated groups, respectively.
# as §1
# Male NMRI mice (8–12 weeks old) bred in the Laboratory Animal House of the Department of Pharmacology and Pharmacotherapy of the University of Pecs were kept in standard plastic cages at 24–25 °C, under a 12–12 h light–dark cycle and provided with standard rodent chow and water ad libitum. […]
# Male NMRI mice [3] = assay: Partial sciatic nerve ligation-induced chronic traumatic neuropathic mechanical hyperalgesia; format: in vivo, mouse
# Procedure: After conditioning and two control mechanonociceptive measurements on 2 consecutive days, mice were anaesthetized by the combination of ketamine (100 mg/kg, i.p.) and xylazine (10 mg/kg, i.p.). Traumatic mononeuropathy was achieved by one-third to one-half part ligation of the right sciatic nerve. Significant decrease in the mechanical threshold develops 7 days after operation. The mechanonociceptive threshold of the plantar surface of the hindpaws was measured by DPA on the 7th postoperative day. The paw withdrawal threshold was obtained in grams (the maximal value was 10 g; ramp time of 4 s). The compounds (500 µg/kg) or the vehicle were administered orally on day 7, one hour before the repeated measurement. The experiment consisted of separate series on 3 consecutive days, and there were 2–3 vehicle-treated control animals in every series. Therefore, each group contained 8 mice.
# as §1
# Male NMRI mice (8–12 weeks old) bred in the Laboratory Animal House of the Department of Pharmacology and Pharmacotherapy of the University of Pecs were kept in standard plastic cages at 24–25 °C, under a 12–12 h light–dark cycle and provided with standard rodent chow and water ad libitum. All experimental procedures complied with the recommendations of the 1998/XXVIII Act of the Hungarian Parliament on Animal Protection and Consideration Decree of Scientific Procedures of Animal Experiments (63/2010) and were approved by the Ethics Committee on Animal Research of Pecs University according to the Ethical Codex of Animal Experiments; license was given (license No. BA1/35/55-50/2017). We made all efforts to minimize the number and suffering of the animals used in this study.
# [4] = set-up: method as in PMID 30232095; conditions: native peptide ref 9; cited from earlier work
# [5] = day 7 after sciatic nerve ligation, 500 µg/kg oral, 1 h later, n = 8
# [6] = day 7 after sciatic nerve ligation, pretreatment self-control, n = 8
# T1 sequence (P31391 whole entry): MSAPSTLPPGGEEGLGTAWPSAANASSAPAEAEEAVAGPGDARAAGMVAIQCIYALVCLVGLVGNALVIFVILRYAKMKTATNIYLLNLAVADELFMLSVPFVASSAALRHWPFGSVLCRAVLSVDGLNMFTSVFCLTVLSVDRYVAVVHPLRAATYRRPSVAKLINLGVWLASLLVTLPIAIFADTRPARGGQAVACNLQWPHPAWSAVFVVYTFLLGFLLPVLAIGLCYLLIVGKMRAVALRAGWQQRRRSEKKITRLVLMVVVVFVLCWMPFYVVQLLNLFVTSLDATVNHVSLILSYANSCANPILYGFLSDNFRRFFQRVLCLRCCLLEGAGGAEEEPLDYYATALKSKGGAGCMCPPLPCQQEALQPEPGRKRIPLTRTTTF
compound,measurement,setting,value
Cc1ccc(S(=O)(=O)N[C@@H](CCN)C(=O)N[C@@H](Cc2ccccc2)C(N)=O)c2ccccc12 [Compound J-2156],Analgesic effect in partial sciatic nerve ligation model,Male NMRI mice [1],potent and dose-dependent analgesic effects
"COc1ccc(CNc2ncnc3c2c(C)c(C)n3Cc2ccccc2)cc1 [Compound 4, 4-Methoxy-benzyl-[7-benzyl-5,6-dimethyl-7H-pyrrolo[2,3-d]pyrimidin-4-yl]-amine]",EC50,sst4 receptor,70 nM
same,Emax,sst4 receptor,177%
"COc1ccc(CCNc2ncnc3c2c(C)c(C)n3Cc2ccccc2)cc1 [Compound 2, (7-Benzyl-5,6-dimethyl-7H-pyrrolo[2,3-d]pyrimidin-4-yl)-[2-(4-methoxy-phenyl)-ethyl]-amine]",EC50,sst4 receptor,66 nM
same,Emax,sst4 receptor,203%
same,Effect on acute neurogenic inflammatory heat hyperalgesia,Male NMRI mice [2]; at 10 and 30 min,not
same,Effect on RTX-induced mechanical hyperalgesia,Male NMRI mice [2]; at 30 min,not
same,"Mechanonociceptive threshold of operated limb, 1 h after treatment",Male NMRI mice [3]; [5],8.04 ± 0.31 g
same,"Neuropathic mechanical hyperalgesia, 1 h after treatment",Male NMRI mice [3]; [5],15.70% ± 2.84
same,"Mechanonociceptive threshold of operated limb, before treatment",Male NMRI mice [3]; [6],6.53 ± 0.30 g
same,"Neuropathic mechanical hyperalgesia, before treatment",Male NMRI mice [3]; [6],31.39% ± 3.39
same,Anti-hyperalgesic effect on neuropathic mechanical hyperalgesia,"Male NMRI mice [3]; traumatic nerve injury, single oral 500 µg/kg",50%
somatostatin: native peptide released from capsaicin-sensitive sensory nerve terminals,Elimination half-life,[4],< 3 min
